Source: PubChem BioAssay (NCI)
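Compound exposure: 48 hours, 5 concentrations, 96-well plates. TGI is the concentration that stops growth completely.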

What was measured:
Experiment in all cases: NCI anticancer screen, dose series, 48 h
786-0 renal = system: 786-0 renal
A498 renal = system: A498 renal
A549 NSCLC = system: A549 NSCLC
ACHN renal = system: ACHN renal
BT-549 breast = system: BT-549 breast
CAKI-1 renal = system: CAKI-1 renal
CCRF-CEM leukemia = system: CCRF-CEM leukemia
COLO 205 colon = system: COLO 205 colon
DU-145 prostate = system: DU-145 prostate
EKVX NSCLC = system: EKVX NSCLC
HCC-2998 colon = system: HCC-2998 colon
HCT-116 colon = system: HCT-116 colon
HCT-15 colon = system: HCT-15 colon
HL-60(TB) leukemia = system: HL-60(TB) leukemia
HOP-62 NSCLC = system: HOP-62 NSCLC
HOP-92 NSCLC = system: HOP-92 NSCLC
HS 578T breast = system: HS 578T breast
HT29 colon = system: HT29 colon
IGROV1 ovarian = system: IGROV1 ovarian
K-562 leukemia = system: K-562 leukemia
KM12 colon = system: KM12 colon
LOX IMVI melanoma = system: LOX IMVI melanoma
M14 melanoma = system: M14 melanoma
MALME-3M melanoma = system: MALME-3M melanoma
MCF7 breast = system: MCF7 breast
MDA-MB-231 breast = system: MDA-MB-231 breast
MDA-MB-435 = system: MDA-MB-435
MDA-N = system: MDA-N
MOLT-4 leukemia = system: MOLT-4 leukemia
NCI-H226 lung = system: NCI-H226 lung
NCI-H23 lung = system: NCI-H23 lung
NCI-H460 lung = system: NCI-H460 lung
NCI-H522 lung = system: NCI-H522 lung
NCI/ADR-RES ovarian = system: NCI/ADR-RES ovarian
OVCAR-3 ovarian = system: OVCAR-3 ovarian
OVCAR-4 ovarian = system: OVCAR-4 ovarian
OVCAR-5 ovarian = system: OVCAR-5 ovarian
OVCAR-8 ovarian = system: OVCAR-8 ovarian
PC-3 prostate = system: PC-3 prostate
RPMI-8226 leukemia = system: RPMI-8226 leukemia
RXF 393 renal = system: RXF 393 renal
SF-268 CNS = system: SF-268 CNS
SF-295 CNS = system: SF-295 CNS
SF-539 CNS = system: SF-539 CNS
SK-MEL-2 melanoma = system: SK-MEL-2 melanoma
SK-MEL-28 melanoma = system: SK-MEL-28 melanoma
SK-MEL-5 melanoma = system: SK-MEL-5 melanoma
SK-OV-3 ovarian = system: SK-OV-3 ovarian
SN12C renal = system: SN12C renal
SNB-19 CNS = system: SNB-19 CNS
SNB-75 CNS = system: SNB-75 CNS
SW-620 colon = system: SW-620 colon
T-47D breast = system: T-47D breast
TK-10 renal = system: TK-10 renal
U251 CNS = system: U251 CNS
UACC-257 melanoma = system: UACC-257 melanoma
UACC-62 melanoma = system: UACC-62 melanoma
UO-31 renal = system: UO-31 renal

Measured: TGI

O=C(O)c1ccccc1Sc1ccccc1[N+](=O)[O-]
> 100 µM: all assays above

COc1cc(/C=C2\N=C(c3ccccc3)N(c3nc4ccc(Sc5ccccc5)cc4[nH]3)C2=O)ccc1O
55.3 µM: CCRF-CEM leukemia
32.7 µM: COLO 205 colon
43.7 µM: U251 CNS
47.1 µM: UACC-257 melanoma
53.7 µM: BT-549 breast
77.1 µM: A498 renal
47.3 µM: HCT-116 colon
28.5 µM: MDA-N
31.2 µM: HL-60(TB) leukemia
50 µM: NCI-H460 lung
44.1 µM: MALME-3M melanoma
50.7 µM: MCF7 breast
94.7 µM: SF-295 CNS
38.7 µM: HT29 colon
37.3 µM: K-562 leukemia
61 µM: NCI/ADR-RES ovarian
49 µM: 786-0 renal
53.3 µM: UACC-62 melanoma
86 µM: ACHN renal
60.4 µM: MDA-MB-231 breast
75.3 µM: SK-MEL-28 melanoma
57.9 µM: KM12 colon
33.6 µM: M14 melanoma
23.2 µM: MDA-MB-435
97.5 µM: SN12C renal
69.4 µM: MOLT-4 leukemia
28.1 µM: SK-MEL-5 melanoma
30.6 µM: SK-MEL-2 melanoma
29.3 µM: HCC-2998 colon
48.3 µM: NCI-H522 lung
53.5 µM: TK-10 renal
47.8 µM: RPMI-8226 leukemia
not listed: NCI-H226 lung | SF-539 CNS
> 100 µM: all other assays above
